# From patent publication US20240415914A1, “Water Dispersible Cannabinoid Compositions” (priority 2021, published 2024)
# Where two headings read alike, the source gives them in different places.
# What was measured:
# [1] = type: physicochemical; conditions: stored at room temperature (21-25° C.)
# Description: At each time period, 0.05 g of powder was dissolved in 10 ml-15 of ethanol, diluted to fall within the analytical range, and injected into the LCMSMS for analysis.
# [2] = Stability of cannabinoid and Vitamin E components of Beverage 2 (AB Red) stored at 8° C. and 21-25° C., LCMSMS over 570 days
# Description: The LCMSMS was calibrated for 0-50 ng/ml cannabinoids with the same resin material used in the preparation of the concentrates. At each time period, 100 μml of beverage was diluted with 10 ml of methanol and injected into the LCMSMS for analysis.
compound,measurement,setting,value
"C=C(C)[C@@H]1CCC(C)=C[C@H]1c1c(O)cc(CCCCC)c(C(=O)O)c1O [CBDA, cannabidiolic acid]",Stability in Powder Concentrate (content by LCMSMS),[1]; day 0,0.410 mg/g powder
same,Stability in Powder Concentrate (content by LCMSMS),[1]; day 1,0.412 mg/g powder
same,Stability in Powder Concentrate (content by LCMSMS),[1]; day 2,0.407 mg/g powder
same,Stability in Powder Concentrate (content by LCMSMS),[1]; day 3,0.406 mg/g powder
same,Stability in Powder Concentrate (content by LCMSMS),[1]; day 5,0.414 mg/g powder
same,Stability in Powder Concentrate (content by LCMSMS),[1]; day 8,0.415 mg/g powder
same,Stability in Powder Concentrate (content by LCMSMS),[1]; day 9,0.410 mg/g powder
same,Stability in Powder Concentrate (content by LCMSMS),[1]; day 10,0.418 mg/g powder
same,Stability in Powder Concentrate (content by LCMSMS),[1]; day 11,0.415 mg/g powder
same,Stability in Powder Concentrate (content by LCMSMS),[1]; day 12,0.396 mg/g powder
same,Stability in Powder Concentrate (content by LCMSMS),[1]; day 15,0.399 mg/g powder
same,Stability in Powder Concentrate (content by LCMSMS),[1]; day 16,0.427 mg/g powder
same,Stability in Powder Concentrate (content by LCMSMS),[1]; day 17,0.421 mg/g powder
same,Stability in Powder Concentrate (content by LCMSMS),[1]; day 18,0.418 mg/g powder
same,Stability in Powder Concentrate (content by LCMSMS),[1]; day 19,0.414 mg/g powder
same,Stability in Powder Concentrate (content by LCMSMS),[1]; day 22,0.419 mg/g powder
same,Stability in Powder Concentrate (content by LCMSMS),[1]; day 23,0.396 mg/g powder
same,Stability in Powder Concentrate (content by LCMSMS),[1]; day 24,0.403 mg/g powder
same,Stability in Powder Concentrate (content by LCMSMS),[1]; day 25,0.401 mg/g powder
same,Stability in Powder Concentrate (content by LCMSMS),[1]; day 26,0.397 mg/g powder
same,Stability in Powder Concentrate (content by LCMSMS),[1]; day 29,0.426 mg/g powder
same,Stability in Powder Concentrate (content by LCMSMS),[1]; day 30,0.405 mg/g powder
same,Stability in Powder Concentrate (content by LCMSMS),[1]; day 60,0.418 mg/g powder
same,Stability in Powder Concentrate (content by LCMSMS),[1]; day 90,0.413 mg/g powder
same,Stability in Powder Concentrate (content by LCMSMS),[1]; day 120,0.403 mg/g powder
same,Stability in Powder Concentrate (content by LCMSMS),[1]; day 150,0.412 mg/g powder
same,Stability in Powder Concentrate (content by LCMSMS),[1]; day 180,0.422 mg/g powder
same,Stability in Powder Concentrate (content by LCMSMS),[1]; day 210,0.427 mg/g powder
same,Stability in Powder Concentrate (content by LCMSMS),[1]; day 240,0.417 mg/g powder
same,Stability in Powder Concentrate (content by LCMSMS),[1]; day 270,0.424 mg/g powder
same,Stability in Powder Concentrate (content by LCMSMS),[1]; day 300,0.409 mg/g powder
same,Stability in Powder Concentrate (content by LCMSMS),[1]; day 330,0.424 mg/g powder
same,Stability in Powder Concentrate (content by LCMSMS),[1]; day 360,0.413 mg/g powder
same,Stability in Powder Concentrate (content by LCMSMS),[1]; day 390,0.407 mg/g powder
same,Stability in Powder Concentrate (content by LCMSMS),[1]; day 420,0.420 mg/g powder
same,Stability in Powder Concentrate (content by LCMSMS),[1]; day 450,0.398 mg/g powder
same,Stability in Powder Concentrate (content by LCMSMS),[1]; day 480,0.418 mg/g powder
same,Stability in Powder Concentrate (content by LCMSMS),[1]; day 510,0.411 mg/g powder
same,Stability in Powder Concentrate (content by LCMSMS),[1]; day 540,0.425 mg/g powder
same,Stability in Powder Concentrate (content by LCMSMS),[1]; day 570,0.408 mg/g powder
same,Stability of Cannabinoids in AB Red,"[2]; 8° C., 0 days",1.68 µg/mL
same,Stability of Cannabinoids in AB Red,"[2]; 8° C., 1 days",1.69 µg/mL
same,Stability of Cannabinoids in AB Red,"[2]; 8° C., 2 days",1.66 µg/mL
same,Stability of Cannabinoids in AB Red,"[2]; 8° C., 3 days",1.64 µg/mL
same,Stability of Cannabinoids in AB Red,"[2]; 8° C., 5 days",1.67 µg/mL
same,Stability of Cannabinoids in AB Red,"[2]; 8° C., 8 days",1.68 µg/mL
same,Stability of Cannabinoids in AB Red,"[2]; 8° C., 9 days",1.65 µg/mL
same,Stability of Cannabinoids in AB Red,"[2]; 8° C., 10 days",1.67 µg/mL
same,Stability of Cannabinoids in AB Red,"[2]; 8° C., 11 days",1.65 µg/mL
same,Stability of Cannabinoids in AB Red,"[2]; 8° C., 12 days",1.68 µg/mL
same,Stability of Cannabinoids in AB Red,"[2]; 8° C., 15 days",1.67 µg/mL
same,Stability of Cannabinoids in AB Red,"[2]; 8° C., 16 days",1.69 µg/mL
same,Stability of Cannabinoids in AB Red,"[2]; 8° C., 17 days",1.64 µg/mL
same,Stability of Cannabinoids in AB Red,"[2]; 8° C., 18 days",1.65 µg/mL
same,Stability of Cannabinoids in AB Red,"[2]; 8° C., 19 days",1.68 µg/mL
same,Stability of Cannabinoids in AB Red,"[2]; 8° C., 22 days",1.70 µg/mL
same,Stability of Cannabinoids in AB Red,"[2]; 8° C., 23 days",1.63 µg/mL
same,Stability of Cannabinoids in AB Red,"[2]; 8° C., 24 days",1.70 µg/mL
same,Stability of Cannabinoids in AB Red,"[2]; 8° C., 25 days",1.63 µg/mL
same,Stability of Cannabinoids in AB Red,"[2]; 8° C., 26 days",1.63 µg/mL
same,Stability of Cannabinoids in AB Red,"[2]; 8° C., 29 days",1.66 µg/mL
same,Stability of Cannabinoids in AB Red,"[2]; 8° C., 30 days",1.70 µg/mL
same,Stability of Cannabinoids in AB Red,"[2]; 8° C., 60 days",1.66 µg/mL
same,Stability of Cannabinoids in AB Red,"[2]; 8° C., 90 days",1.68 µg/mL
same,Stability of Cannabinoids in AB Red,"[2]; 8° C., 120 days",1.65 µg/mL
same,Stability of Cannabinoids in AB Red,"[2]; 8° C., 150 days",1.66 µg/mL
same,Stability of Cannabinoids in AB Red,"[2]; 8° C., 180 days",1.60 µg/mL
same,Stability of Cannabinoids in AB Red,"[2]; 8° C., 210 days",1.65 µg/mL
same,Stability of Cannabinoids in AB Red,"[2]; 8° C., 240 days",1.66 µg/mL
same,Stability of Cannabinoids in AB Red,"[2]; 8° C., 270 days",1.63 µg/mL
same,Stability of Cannabinoids in AB Red,"[2]; 8° C., 300 days",1.65 µg/mL
same,Stability of Cannabinoids in AB Red,"[2]; 8° C., 330 days",1.60 µg/mL
same,Stability of Cannabinoids in AB Red,"[2]; 8° C., 390 days",1.63 µg/mL
same,Stability of Cannabinoids in AB Red,"[2]; 8° C., 420 days",1.63 µg/mL
same,Stability of Cannabinoids in AB Red,"[2]; 8° C., 450 days",1.63 µg/mL
same,Stability of Cannabinoids in AB Red,"[2]; 8° C., 480 days",1.60 µg/mL
same,Stability of Cannabinoids in AB Red,"[2]; 8° C., 510 days",1.55 µg/mL
same,Stability of Cannabinoids in AB Red,"[2]; 8° C., 540 days",1.55 µg/mL
same,Stability of Cannabinoids in AB Red,"[2]; 8° C., 570 days",1.54 µg/mL
same,Stability of Cannabinoids in AB Red,"[2]; 21-25° C., 0 days",1.68 µg/mL
same,Stability of Cannabinoids in AB Red,"[2]; 21-25° C., 1 days",1.70 µg/mL
same,Stability of Cannabinoids in AB Red,"[2]; 21-25° C., 2 days",1.65 µg/mL
same,Stability of Cannabinoids in AB Red,"[2]; 21-25° C., 3 days",1.64 µg/mL
same,Stability of Cannabinoids in AB Red,"[2]; 21-25° C., 5 days",1.69 µg/mL
same,Stability of Cannabinoids in AB Red,"[2]; 21-25° C., 8 days",1.64 µg/mL
same,Stability of Cannabinoids in AB Red,"[2]; 21-25° C., 9 days",1.63 µg/mL
same,Stability of Cannabinoids in AB Red,"[2]; 21-25° C., 10 days",1.61 µg/mL
same,Stability of Cannabinoids in AB Red,"[2]; 21-25° C., 11 days",1.64 µg/mL
same,Stability of Cannabinoids in AB Red,"[2]; 21-25° C., 12 days",1.70 µg/mL
same,Stability of Cannabinoids in AB Red,"[2]; 21-25° C., 15 days",1.64 µg/mL
same,Stability of Cannabinoids in AB Red,"[2]; 21-25° C., 16 days",1.67 µg/mL
same,Stability of Cannabinoids in AB Red,"[2]; 21-25° C., 17 days",1.63 µg/mL
same,Stability of Cannabinoids in AB Red,"[2]; 21-25° C., 18 days",1.65 µg/mL
same,Stability of Cannabinoids in AB Red,"[2]; 21-25° C., 19 days",1.70 µg/mL
same,Stability of Cannabinoids in AB Red,"[2]; 21-25° C., 22 days",1.66 µg/mL
same,Stability of Cannabinoids in AB Red,"[2]; 21-25° C., 23 days",1.63 µg/mL
same,Stability of Cannabinoids in AB Red,"[2]; 21-25° C., 24 days",1.65 µg/mL
same,Stability of Cannabinoids in AB Red,"[2]; 21-25° C., 25 days",1.64 µg/mL
same,Stability of Cannabinoids in AB Red,"[2]; 21-25° C., 26 days",1.67 µg/mL
same,Stability of Cannabinoids in AB Red,"[2]; 21-25° C., 29 days",1.62 µg/mL
same,Stability of Cannabinoids in AB Red,"[2]; 21-25° C., 30 days",1.68 µg/mL
same,Stability of Cannabinoids in AB Red,"[2]; 21-25° C., 60 days",1.59 µg/mL
same,Stability of Cannabinoids in AB Red,"[2]; 21-25° C., 90 days",1.60 µg/mL
same,Stability of Cannabinoids in AB Red,"[2]; 21-25° C., 120 days",1.64 µg/mL
same,Stability of Cannabinoids in AB Red,"[2]; 21-25° C., 150 days",1.58 µg/mL
same,Stability of Cannabinoids in AB Red,"[2]; 21-25° C., 180 days",1.64 µg/mL
same,Stability of Cannabinoids in AB Red,"[2]; 21-25° C., 210 days",1.64 µg/mL
same,Stability of Cannabinoids in AB Red,"[2]; 21-25° C., 240 days",1.60 µg/mL
same,Stability of Cannabinoids in AB Red,"[2]; 21-25° C., 270 days",1.65 µg/mL
same,Stability of Cannabinoids in AB Red,"[2]; 21-25° C., 300 days",1.58 µg/mL
same,Stability of Cannabinoids in AB Red,"[2]; 21-25° C., 330 days",1.65 µg/mL
same,Stability of Cannabinoids in AB Red,"[2]; 21-25° C., 390 days",1.61 µg/mL
same,Stability of Cannabinoids in AB Red,"[2]; 21-25° C., 420 days",1.59 µg/mL
same,Stability of Cannabinoids in AB Red,"[2]; 21-25° C., 450 days",1.57 µg/mL
same,Stability of Cannabinoids in AB Red,"[2]; 21-25° C., 480 days",1.57 µg/mL
same,Stability of Cannabinoids in AB Red,"[2]; 21-25° C., 510 days",1.56 µg/mL
same,Stability of Cannabinoids in AB Red,"[2]; 21-25° C., 540 days",1.57 µg/mL
same,Stability of Cannabinoids in AB Red,"[2]; 21-25° C., 570 days",1.54 µg/mL
